Data taken from patent publication US20050101595A1, “N-containing cycloalkyl-substituted amino-thiazole derivatives and pharmaceutical compositions for inhibiting cell proliferation and methods for their use” (PFIZER INC., priority 2003, published 2005).
Structures can show the parent of a compound that is named as a salt. Where two headings read alike, the source gives them in different places.

Legend:
[1] = biological target: human CDK4 and genetically truncated (1-264) cyclin D3 (Homo sapiens, UniProt P11802); experiment: Inhibition of CDK4/Cyclin D Retinoblastoma Kinase Activity; format: biochemical; details: for Ki: apparent Ki, CDK4/truncated cyclin D3, Rb fragment substrate, 25 μM ATP
Summary of the method: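 Apparent Ki values come from competitive or competitive tight-binding inhibition fits of background-corrected 32P/33P incorporation into His-tagged Rb fragment (386-928), captured on nitrocellulose. Reaction: 5 nM insect-cell-expressed human CDK4 with cyclin D3 (1-264), 25 μM ATP, pH 7.4 HEPES, 2% DMSO, 30° C., 20 min, extended to 60 min for tight-binding inhibitors.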

CDK2/Cyclin A = CDK2/Cyclin A (Homo sapiens, UniProt P24941); experiment: Inhibition of CDK2/Cyclin A Retinoblastoma Kinase Activity; format: biochemical; details: for Ki: apparent Ki, CDK2/proteolyzed cyclin A, Rb fragment substrate, 25 μM ATP
Summary of the method: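 Radiometric filter-binding readout of phosphate transfer to an Rb substrate fragment by purified CDK2/truncated cyclin A at 10 or 19 nM. Run at pH 7.4 with 25 μM ATP, 30 °C, 60–75 min, linear rates; background without enzyme subtracted, Ki from competitive-inhibition models.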

HCT-116 cell line = experiment: Inhibition of cell growth, tetrazolium salt (MTT) assay; format: cell-based; details: for IC50: Homo sapiens, HCT-116, 120 h, MTT, three to five days, read-out: HCT-116 IC50; for HCT-116 % Inhibition at 0.25 μM: 0.25 μM compound
Summary of the method: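 Growth inhibition by MTT reduction at 540 nm (0.2 mg/mL, 4 h at 37° C, formazan dissolved in DMSO), normalized to cells given only 0.5% v/v DMSO. HCT-116 cultures in McCoy's 5A were dosed 4 h post-plating and kept three to five days at 37° C, 5% CO2.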

Chain of human CDK4 and genetically truncated (1-264) cyclin D3 (P11802 whole entry, the tested form may be a part): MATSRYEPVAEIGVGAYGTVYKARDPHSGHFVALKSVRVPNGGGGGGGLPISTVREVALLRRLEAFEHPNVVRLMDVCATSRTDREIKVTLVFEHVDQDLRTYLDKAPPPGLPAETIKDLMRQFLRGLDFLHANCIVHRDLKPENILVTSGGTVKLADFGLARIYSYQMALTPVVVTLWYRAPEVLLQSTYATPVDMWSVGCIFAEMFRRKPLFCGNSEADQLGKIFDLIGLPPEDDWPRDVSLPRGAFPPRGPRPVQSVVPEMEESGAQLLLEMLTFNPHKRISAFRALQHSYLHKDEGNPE
Chain of human CDK4 and genetically truncated (1-264) cyclin D3 (P30281 1-264 partner): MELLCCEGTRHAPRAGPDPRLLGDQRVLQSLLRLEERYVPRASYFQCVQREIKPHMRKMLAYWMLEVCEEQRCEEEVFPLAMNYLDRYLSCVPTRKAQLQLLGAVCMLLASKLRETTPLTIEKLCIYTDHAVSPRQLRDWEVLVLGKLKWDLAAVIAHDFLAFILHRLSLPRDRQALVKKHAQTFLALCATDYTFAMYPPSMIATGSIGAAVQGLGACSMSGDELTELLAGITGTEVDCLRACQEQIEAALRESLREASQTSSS

| Ki [1] | Ki (CDK2/Cyclin A) | IC50 (HCT-116 cell line; first HCT-116 column (c4)) | IC50 (HCT-116 cell line; second HCT-116 column (c5)) | SMILES | also measured |
| --- | --- | --- | --- | --- | --- |
| 1.8 nM | 0.3 nM | > 500 nM | > 500 nM | Nc1nc(NC2CCN(S(=O)(=O)c3ccc(S)nc3)CC2)sc1C(=O)c1c(F)cccc1F [Example L4, 1-{4-Amino-2-[1-(6-mercapto-pyridine-3-sulfonyl)-piperidin-4-ylamino]-thiazol-5-yl}-1-(2,6-difluoro-phenyl)-methanone Hydrochloride.] |  |
| 0.61 nM | 1.3 nM | 90 nM | 500 nM | CN1CC[C@@H](c2ccc(S(=O)(=O)N3CCC(Nc4nc(N)c(C(=O)c5c(F)cccc5F)s4)CC3)cc2)C1 [Example F53, (4-Amino-2-{1-[4-(1-methyl-pyrrolidin-3S-yl)-benzenesulfonyl]-piperidin-4-ylamino}-thiazol-5-yl)-(2,6-difluoro-phenyl)-methanone] |  |
| 0.85 nM | 2.4 nM | 130 nM | 320 nM | CN(C)CCN(C)Cc1ccc(S(=O)(=O)N2CCC(Nc3nc(N)c(C(=O)c4c(F)cccc4F)s3)CC2)cc1 [Example J9, 1-{4-Amino-2-[1-(4-{[(2-dimethylamino-ethyl)-methyl-amino]-methyl}-benzenesulfonyl)-piperidin-4-ylamino]-thiazol-5-yl}-1-(2,6-difluoro-phenyl)-methanone Hydrochloride Salt.] |  |
| 1.5 nM | 1 nM | 140 nM | 580 nM | Nc1nc(NC2CCN(S(=O)(=O)CCCN3CCc4ccccc4C3)CC2)sc1C(=O)c1c(F)cccc1F [Example K5, 1-(4-Amino-2-{1-[3-(3,4-dihydro-1H-isoquinolin-2-yl)propane-1-sulfonyl]-piperidin-4-ylamino}-thiazol-5-yl)-1-(2,6-difluoro-phenyl)-methanone.] |  |

More lines, now with the values behind:

| SMILES | Ki [1] | Ki (CDK2/Cyclin A) | IC50 (HCT-116 cell line; first HCT-116 column (c4)) | IC50 (HCT-116 cell line; second HCT-116 column (c5)) | also measured |
| --- | --- | --- | --- | --- | --- |
| CC(C)(Oc1ccc(Cl)cc1)C(=O)N1CCC(Nc2nc(N)c(C(=O)c3c(F)cccc3F)s2)CC1 [Example R66] |  |  |  |  | CDK4 % Inhibition at 0.03 μM ([1]; at 0.03 μM): 27%; CDK2 % Inhibition at 0.03 μM (CDK2/Cyclin A; at 0.03 μM): 16%; HCT-116 % Inhibition at 0.1 μM (HCT-116 cell line; HCT-116 cells, at 0.1 μM): 0.54%; HCT-116 5 Inhibition at 0.25 μM (HCT-116 cell line; HCT-116 cells): 42 |
| CN(C)CC#Cc1ccc(S(=O)(=O)N2CCC(Nc3nc(N)c(C(=O)c4c(F)cccc4F)s3)CC2)cn1 [Example I11, 1-(4-Amino-2-{1-[6-(3-dimethylamino-prop-1-ynyl)-pyridine-3-sulfonyl]-piperidin-4-ylamino}-thiazol-5-yl)-1-(2,6-difluoro-phenyl)-methanone] | 0.5 nM | < 0.5 nM | 16 nM | 25 nM |  |
| COc1cc(Cl)ccc1C(=O)N1CCC(Nc2nc(N)c(C(=O)c3c(F)cccc3F)s2)CC1 [Example R145] |  |  |  |  | CDK4 % Inhibition at 0.03 μM ([1]; at 0.03 μM): 53%; CDK2 % Inhibition at 0.03 μM (CDK2/Cyclin A; at 0.03 μM): 45%; HCT-116 % Inhibition at 0.1 μM (HCT-116 cell line; HCT-116 cells, at 0.1 μM): 0%; HCT-116 5 Inhibition at 0.25 μM (HCT-116 cell line; HCT-116 cells): 38 |
| CC(C)S(=O)(=O)c1csc(C(=O)N2CCC(Nc3nc(N)c(C(=O)c4c(F)cccc4F)s3)CC2)c1Cl [Example R62] |  |  |  |  | CDK4 % Inhibition at 0.03 μM ([1]; at 0.03 μM): 78%; CDK2 % Inhibition at 0.03 μM (CDK2/Cyclin A; at 0.03 μM): 65%; HCT-116 % Inhibition at 0.1 μM (HCT-116 cell line; HCT-116 cells, at 0.1 μM): 0%; HCT-116 5 Inhibition at 0.25 μM (HCT-116 cell line; HCT-116 cells): 38 |
| CN(C)CCOc1nc(S(=O)(=O)N2CCC(Nc3nc(N)c(C(=O)c4c(F)cccc4F)s3)CC2)cn1C [Example H25, (4-Amino-2-{1-[2-(2-dimethylamino-ethoxy)-1-methyl-1H-imidazole-4-sulfonyl]-piperidin-4-ylamino}-thiazol-5-yl)-(2,6-difluoro-phenyl)-methanone Hydrochloride Salt] | 83 nM | 20 nM | > 5000 nM | > 5000 nM |  |
| Nc1nc(NC2CCN(C(=O)OCc3ccccc3)CC2)sc1C(=O)c1c(F)cccc1F [Example Q6] |  |  |  |  | CDK4 % Inhibition at 0.03 μM ([1]; 0.03 μM compound, Table 4): 24%; CDK2 % Inhibition at 0.03 μM (CDK2/Cyclin A; 0.03 μM compound, Table 4): −32%; HCT-116 % Inhibition at 0.1 μM (HCT-116 cell line; 0.1 μM compound, HCT-116, Table 4): 9%; HCT-116 % Inhibition at 0.25 μM (HCT-116 cell line; HCT-116, Table 4): 38% |
| Nc1nc(NC2CCN(S(=O)(=O)c3cccc(C(=O)O)c3)CC2)sc1C(=O)c1c(F)cccc1F [Example P29] |  |  |  |  | CDK4 % Inhibition at 0.03 μM ([1]; 0.03 μM compound, Table 3): 56%; CDK2 % Inhibition at 0.03 μM (CDK2/Cyclin A; 0.03 μM compound, Table 3): 35%; HCT-116 % Inhibition at 0.1 μM (HCT-116 cell line; 0.1 μM compound, HCT-116, Table 3): 0%; HCT-116 % Inhibition at 0.25 μM (HCT-116 cell line; HCT-116, Table 3): 21% |
| Nc1nc(NC2CCN(S(=O)(=O)c3cnc(OCCN4CCCCC4)nc3)CC2)sc1C(=O)c1c(F)cccc1F [Example H23, (4-Amino-2-{1-[2-(2-piperidin-1-yl-ethoxy)-pyrimidine-5-sulfonyl]-piperidin-4-ylamino}-thiazol-5-yl)-(2,6-difluoro-phenyl)-methanone Trifluoroacetic Acid Salt] | 0.52 nM | 1.5 nM | 93 nM | 1500 nM |  |
| Cc1ccc(NC(=O)N2CCC(Nc3nc(N)c(C(=O)c4c(F)cccc4F)s3)CC2)cc1 [Example O24] |  |  |  |  | CDK4 % Inhibition at 0.03 μM ([1]; 0.03 μM compound, Table 2): 21%; CDK2 % Inhibition At 0.03 μM (CDK2/Cyclin A; 0.03 μM compound, Table 2): 34%; HCT-116 % Inhibition at 0.25 μM (HCT-116 cell line; HCT-116, Table 2): 6% |
